Laboratory results reported in PubChem BioAssay (NCI).
Several values for one entry are separate records, joined by “and”; a condition that tells them apart may be missing. Equal entries are not always repeated.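 Briefly, cells in 96-well plates were exposed to five compound concentrations for 48 h, and endpoints were estimated by linear interpolation. Here, GI50 denotes the concentration required for 50% inhibition of growth. TGI marks complete inhibition of growth.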

What was measured:
Test in all cases: DTP human tumour cell line panel, 48 h
786-0 renal = test system: 786-0 renal
A498 renal = test system: A498 renal
CAKI-1 renal = test system: CAKI-1 renal
HS 578T breast = test system: HS 578T breast
LOX IMVI melanoma = test system: LOX IMVI melanoma
NCI-H226 lung = test system: NCI-H226 lung
OVCAR-5 ovarian = test system: OVCAR-5 ovarian
RPMI-8226 leukemia = test system: RPMI-8226 leukemia

Row | Structure (SMILES) | GI50 (786-0 renal) | TGI (786-0 renal) | GI50 (A498 renal) | TGI (A498 renal) | GI50 (CAKI-1 renal) | TGI (CAKI-1 renal) | GI50 (HS 578T breast) | TGI (HS 578T breast) | GI50 (LOX IMVI melanoma) | TGI (LOX IMVI melanoma) | GI50 (NCI-H226 lung) | TGI (NCI-H226 lung) | GI50 (OVCAR-5 ovarian) | TGI (OVCAR-5 ovarian) | GI50 (RPMI-8226 leukemia) | TGI (RPMI-8226 leukemia)
1 | CNC(=O)CN1CCC(Oc2cc3c(Nc4cccc(Cl)c4F)ncnc3cc2OC)CC1 | 5.28 µM and 5.31 µM | 27.8 µM and > 10 µM | 1.1 µM and 1.33 µM | 11.5 µM and > 10 µM | 0.216 µM and 1.11 µM | 10.4 µM and > 10 µM | 3.35 µM and 2.96 µM | 21.2 µM and > 10 µM | 8.12 µM and > 5.06 µM | 20.9 µM and > 10 µM | 13.9 µM and > 6.23 µM | 42.1 µM and > 10 µM | 1.9 µM and 1.56 µM | 22.4 µM and > 10 µM | 32.2 µM and > 10 µM | > 100 µM
2 | C[C@@H]1OCC2(CCN(c3cnc(Sc4ccnc(N)c4Cl)c(N)n3)CC2)[C@@H]1N | 98.6 µM | > 100 µM | 0.128 µM | 4.6 µM | 3.69 µM | > 100 µM | 61.8 µM | > 100 µM | > 100 µM | > 100 µM |  | > 100 µM | > 100 µM | > 100 µM | 37.6 µM | > 100 µM
3 | COC1=C(OC)[C@]2(OC)c3c(O)c(OC)c4c(c3O[C@@]23O[C@@H](c2ccccc2)CC=C3C1=O)[C@@H](O)C[C@H](c1ccccc1)O4 | 0.171 µM | 0.339 µM | 0.348 µM | 2.35 µM | 1.34 µM | 2.93 µM | 1.76 µM | 5.38 µM | 0.157 µM | 0.377 µM | 0.286 µM | 1.46 µM | 1.64 µM | 3.18 µM | 0.0714 µM | 0.597 µM
4 | Nc1c2ccccc2nc2ccccc12 (tested in a mixture with another compound) | 2.45 µM | 9.4 µM | 1.12 µM | 2.62 µM | 1.83 µM | 5.11 µM | 3.06 µM | 17.4 µM | 1.87 µM | 5.94 µM | 1.17 µM | 3.03 µM | 2.96 µM | 13.4 µM | 3.86 µM | > 100 µM
5 | Nc1nc(-c2cccs2)cs1 |  | > 100 µM |  | > 100 µM |  | > 100 µM |  | > 100 µM |  | > 100 µM |  |  |  | > 100 µM |  | > 100 µM
6 | CC(=O)[O][Bi]([c]1ccccc1)[c]1ccccc1 | 2.96 µM | 9.6 µM | 18.2 µM | 32.4 µM | 11.1 µM | 26.2 µM | 24.9 µM | 71.9 µM | 1.98 µM | 5.24 µM | 18.6 µM | 37.5 µM | 11.8 µM | 26.3 µM | 2.59 µM | 5.99 µM
7 | Cc1cc2nc(C(Cl)Cl)nc(-c3ccccc3)n2n1 | 52.9 µM | > 100 µM | 2.6 µM | 11.2 µM | 2.7 µM | 15.4 µM | 2.65 µM | 14.5 µM | 24.4 µM | > 100 µM | > 100 µM | > 100 µM | 3.3 µM | 17.1 µM | 5.04 µM | 44.3 µM
8 | CCN1CCN(c2ccc(Nc3ncc4ccc5ncn(C(C)C)c5c4n3)nc2)CC1 | 0.102 µM | 1.69 µM | < 0.0337 µM | 0.241 µM | 0.025 µM | 0.52 µM | 0.155 µM | 0.618 µM | 0.116 µM | 0.556 µM | 0.148 µM | 2.67 µM | 0.037 µM | 21.5 µM | < 0.0324 µM | 1.45 µM
9 | Cn1c(=N)n[n+]([O-])c2ccccc21 |  | 16 µM and 24.8 µM | 3.07 µM and 9.29 µM | 9.7 µM and 23.2 µM |  | 5.86 µM and 6.18 µM | 2.85 µM and 5.89 µM | 6.77 µM and 18.5 µM |  | > 100 µM |  | 24.8 µM and 32.4 µM |  | 3.83 µM and 7.61 µM | 1.99 µM and 0.574 µM | 5.19 µM and 7.67 µM
10 | CCN(CC)CC[n+]1cc2cc(OC)c(OC)cc2c2ccc3cc4c(cc3c21)OCO4 | 0.903 µM | 3.78 µM | 0.514 µM | 2.92 µM | 1.99 µM | 14.3 µM | 0.604 µM | 5.54 µM | 0.355 µM | 0.996 µM | 1.35 µM | 3.24 µM | 1.01 µM | 3.17 µM | 0.303 µM | 1.73 µM
11 | Cc1nn(C)c2cc(N(C)c3ccnc(Nc4cccc(S(N)(=O)=O)c4)n3)ccc12 | 9.36 µM | > 25 µM | 5.27 µM | 17.5 µM | 7.17 µM | > 22.6 µM | 7.26 µM | > 25 µM | 7.14 µM | > 25 µM | 5.16 µM | > 21.3 µM | 5.83 µM | > 25 µM | 6.82 µM | > 25 µM
12 | O=c1ccnc(SCc2ccc(Cl)cc2)[nH]1 |  | > 100 µM |  | > 100 µM |  | > 100 µM |  | > 100 µM |  | > 100 µM |  |  |  | > 100 µM |  | > 100 µM
13 | c1ccc2c3c(ccc2c1)-c1c(ccc2c(NCCCCN4CCCCC4)cccc12)C3 | 1.76 µM | 3.14 µM |  |  |  |  |  |  |  |  |  |  | 1.31 µM | 2.88 µM | 1.64 µM | 3.6 µM
14 | Nc1ccccc1C#Cc1ccccc1C#Cc1cnccn1 | 15.3 µM | 28.7 µM |  |  | 14.3 µM | 29.2 µM |  |  | 17 µM | 33.7 µM | 17.2 µM | 32.8 µM | 18.6 µM | 43.5 µM | 14.8 µM | 50.2 µM
15 | CCOC(=O)N1C=CC(=C2C(=C3C=CN(C(=O)OCC)C=C3)C(=C3C=CN(C(=O)OCC)C=C3)C2=C2C=CN(C(=O)OCC)C=C2)C=C1 |  | > 100 µM |  |  |  | 50.6 µM |  | 85.6 µM |  | 45.8 µM |  | 71 µM |  | > 100 µM |  | 
16 | COc1ccc(C(c2cc3c(cc2O)OCO3)N2CCOCC2)cc1OC (configuration not stated) |  | 23.1 µM |  |  |  | 25.4 µM |  | 19.9 µM |  | 16.5 µM |  | 24.6 µM |  | 21.5 µM |  | 
17 | Cc1ccc(NC(=O)c2cc3ccccc3cc2O)c(C)c1.Cc1ccc(NC(=O)c2cc3ccccc3cc2[O-])c(C)c1.[Ni+2] | 3.77 µM | 14.6 µM | 3.44 µM | 13.4 µM | 3.08 µM | 13.1 µM | 2.98 µM | 9.38 µM |  |  | 3.49 µM | 8.37 µM | 4.25 µM | 17.9 µM | 1.94 µM | 6.1 µM
